Data on one substance can be found in patent US5846986A, “Therapeutic phenoxyalkylazoles and phenoxyalkylazines” (Sanofi, priority 1997, dated 1998).

The assay relates to panel of 10 human rhinopicornavirus serotypes HRV-3, -4, -5, -9, -16, -18, -38, -66, -75 and -67 (panel B). The assay is described as follows: automated TCID-50 assay, HeLa cells, panel B of 10 human rhinopicornavirus serotypes. Format: cell-based. The note with it: minimum concentration required to inhibit 50% of the tested serotypes, number of serotypes tested in column N, 3 days, 33° C. On the procedure:
The MIC values were determined by an automated tissue culture infectious dose 50% (TCID-50) assay. HeLa cells in monoloyers in 96-well cluster plates were infected with a dilution of picornavirus which had been shown empirically to produce 80% to 100% cytopathic effect (CPE) in 3 days in the absence of drug. The compound to be tested was serially diluted through 10, 2-fold cycles and added to the infected cells. After a 3 day incubation at 33° C. and 2.5% carbon dioxide, the cells were fixed with a 5% solution of glutaraldehyde followed by staining with a 0.25% solution of crystal violet in water. […]
In the above test procedures, representative compounds of formula I were tested against some the serotypes from either a panel of fifteen human rhinopicornavirus (HRV) serotypes, (noted in the table as panel T) namely, HRV-2, -14, -1A, -1B, -6, -21, -22, -15, -25, -30, -50, -67, -89, -86 and -41 or against some of the serotypes from a panel of 10 human rhinopicornavirus serotypes namely HRV-3, -4, -5, -9, -16, -18, -38, -66, -75 and -67, (noted in the table as panel B) and the MIC value, expressed in micrograms per milliliter […], for each rhinopicornavirus serotype was determined for each picornavirus, example le is given as an example of the data. […]

For the substance “3-Methyl-5-[3-[4-(2-methyl-tetrazol-5-yl)-2,6-dimethylphenoxy]-propyl]-thiazole [Example 11]”, the Mic50 amounted to 0.148 µg/mL.
